Patent publication US20140357713A1, “ANTIMICROBIAL COMPOUNDS AND METHODS OF USE” (NexMed Holdings, Inc., priority 2012, published 2014)
Where two headings read alike, the source gives them in different places.

Columns and labels:
Format in all cases: cell-based
Pseudomonas aeruginosa = experiment: Extended time kill study, Example 34 (0 to 24 h)
Method in brief: (§1)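 Strain suspensions prepared as for MIC testing were mixed 1:1 with compound solution at higher multiples of MIC. Samples taken over 0 to 24 h were diluted in test medium and plated on agar, and colonies were counted after 24–48 h incubation.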

Staphylococcus aureus = experiment: Extended time kill study, Example 34 (0 to 24 h)
Method in brief: as §1

[1] = test system: Acinetobacter baumannii (ATCC 19606); experiment: MIC assay with different strains, Example 35
Description: (§2) The minimum inhibitory concentration (MIC) is used to determine the lowest concentration of a test product claiming antimicrobial effects that will inhibit growth of a microorganism. Each microbial suspension was adjusted approximately 10^7 to 10^8 colony forming units (CFU) per mL and labeled as the stock suspension. The stock suspension was further diluted to 1:200 in Mueller Hinton broth to obtain a test sample having a concentration of […]. The test sample was then tested for MIC as described in M202.R02. After incubation, each tube was examined for turbidity, which indicated growth or no growth. For the tubes where the product rendered the media turbid, an aliquot of the media was streaked onto agar plates to confirm growth or lack of growth.

[2] = test system: Acinetobacter iwoffi (ATCC 15309); experiment: MIC assay with different strains, Example 35
Description: as §2

[3] = test system: Enterobacter aerogenes (ATCC 13048); experiment: MIC assay with different strains, Example 35
Description: as §2

[4] = test system: Escherichia coli ATCC 25922; experiment: MIC assay with different strains, Example 35
Description: as §2

[5] = test system: Klebsiella oxytoca (ATCC 43165); experiment: MIC assay with different strains, Example 35
Description: as §2

Structure (SMILES): CCCCCCCCCCCCOC(=O)C(C)NC.Cl (centres unmarked) [Nex-59, Dodecyl 2-(methylamino)propanoate hydrochloride]
- Viable counts, Pseudomonas aeruginosa time kill study (Pseudomonas aeruginosa; 2 × MIC, time 0): 5.16 Log10 CFU/mL
- Viable counts, Pseudomonas aeruginosa time kill study (Pseudomonas aeruginosa; 4 × MIC, 1 h): <1 Log10 CFU/mL
- Viable counts, Pseudomonas aeruginosa time kill study (Pseudomonas aeruginosa; 4 × MIC, 2 h): <1 Log10 CFU/mL
- Viable counts, Pseudomonas aeruginosa time kill study (Pseudomonas aeruginosa; 4 × MIC, 4 h): <1 Log10 CFU/mL
- Viable counts, Pseudomonas aeruginosa time kill study (Pseudomonas aeruginosa; 4 × MIC, 6 h): <1 Log10 CFU/mL
- Viable counts, Pseudomonas aeruginosa time kill study (Pseudomonas aeruginosa; 4 × MIC, 24 h): <1 Log10 CFU/mL
- Viable counts, Pseudomonas aeruginosa time kill study (Pseudomonas aeruginosa; 4 × MIC, time 0): 5.21 Log10 CFU/mL
- Viable counts, Staphylococcus aureus time kill study (Staphylococcus aureus; 1 × MIC, 1 h): <3 Log10 CFU/mL
- Viable counts, Staphylococcus aureus time kill study (Staphylococcus aureus; 1 × MIC, 2 h): <3 Log10 CFU/mL
- Viable counts, Staphylococcus aureus time kill study (Staphylococcus aureus; 1 × MIC, 4 h): <3 Log10 CFU/mL
- Viable counts, Staphylococcus aureus time kill study (Staphylococcus aureus; 1 × MIC, 6 h): <3 Log10 CFU/mL
- Viable counts, Staphylococcus aureus time kill study (Staphylococcus aureus; 1 × MIC, 24 h): <1 Log10 CFU/mL
- Viable counts, Staphylococcus aureus time kill study (Staphylococcus aureus; 1×MIC, time 0): 6.20 Log10 CFU/mL
- Viable counts, Staphylococcus aureus time kill study (Staphylococcus aureus; 2 × MIC, 1 h): <3 Log10 CFU/mL
- Viable counts, Staphylococcus aureus time kill study (Staphylococcus aureus; 2 × MIC, 2 h): <3 Log10 CFU/mL
- Viable counts, Staphylococcus aureus time kill study (Staphylococcus aureus; 2 × MIC, 4 h): <3 Log10 CFU/mL
- Viable counts, Staphylococcus aureus time kill study (Staphylococcus aureus; 2 × MIC, 6 h): <3 Log10 CFU/mL
- Viable counts, Staphylococcus aureus time kill study (Staphylococcus aureus; 2 × MIC, 24 h): <1 Log10 CFU/mL
- Viable counts, Staphylococcus aureus time kill study (Staphylococcus aureus; 2 × MIC, time 0): 6.19 Log10 CFU/mL
- Viable counts, Staphylococcus aureus time kill study (Staphylococcus aureus; 4 × MIC, 1 h): <3 Log10 CFU/mL
- Viable counts, Staphylococcus aureus time kill study (Staphylococcus aureus; 4 × MIC, 2 h): <3 Log10 CFU/mL
- Viable counts, Staphylococcus aureus time kill study (Staphylococcus aureus; 4 × MIC, 4 h): <3 Log10 CFU/mL
- Viable counts, Staphylococcus aureus time kill study (Staphylococcus aureus; 4 × MIC, 6 h): <3 Log10 CFU/mL
- Viable counts, Staphylococcus aureus time kill study (Staphylococcus aureus; 4 × MIC, 24 h): <1 Log10 CFU/mL
- Viable counts, Staphylococcus aureus time kill study (Staphylococcus aureus; 4 × MIC, time 0): 6.18 Log10 CFU/mL
- MIC ([1]; Acinetobacter baumannii, ATCC19606, Table 19 summary, read-out: MIC): 800 µg/mL
- MIC ([1]; Example 35): 0.08%
- Growth/no growth ([1]; Sample Concentration 0.01%): Growth
- Growth/no growth ([1]; Sample Concentration 0.02%): Growth
- Growth/no growth ([1]; Sample Concentration 0.04%): Growth
- MIC ([2]; Acinetobacter, ATCC15309, Table 19 summary, read-out: MIC): 200 µg/mL
- MIC ([2]; Example 35): 0.02%
- Growth/no growth ([2]; Sample Concentration 0.01%): Growth
- MIC ([3]; Example 35): 0.16%
- MIC ([3]; Klebsiella aerogenes, ATCC13048, Table 19 summary, read-out: MIC): 1600 µg/mL
- Growth/no growth ([3]; Sample Concentration 0.01%): Growth
- Growth/no growth ([3]; Sample Concentration 0.02%): Growth
- Growth/no growth ([3]; Sample Concentration 0.04%): Growth
- Growth/no growth ([3]; Sample Concentration 0.08%): Growth
- Growth/no growth ([3]; Sample Concentration 0.16%): No
- Growth/no growth ([3]; Sample Concentration 0.32%): No
- Growth/no growth ([3]; Sample Concentration 0.63%): No
- Growth/no growth ([3]; Sample Concentration 1.25%): No
- Growth/no growth ([3]; Sample Concentration 2.5%): No
- MIC ([4]; Example 35): 0.16%
- Growth/no growth ([4]; Sample Concentration 0.01%): Growth
- Growth/no growth ([4]; Sample Concentration 0.02%): Growth
- Growth/no growth ([4]; Sample Concentration 0.04%): Growth
- Growth/no growth ([4]; Sample Concentration 0.08%): Growth
- Growth/no growth ([4]; Sample Concentration 0.16%): No
- Growth/no growth ([4]; Sample Concentration 0.32%): No
- Growth/no growth ([4]; Sample Concentration 0.63%): No
- Growth/no growth ([4]; Sample Concentration 1.25%): No
- Growth/no growth ([4]; Sample Concentration 2.5%): No
- MIC ([5]; Example 35): 0.63%
- MIC ([5]; Klebsiella oxytoca, ATCC 43165 / ATCC 43615, Table 19 summary, strain printed ATCC 43615, read-out: MIC): 6300 µg/mL
- Growth/no growth ([5]; Sample Concentration 0.01%): Growth
- Growth/no growth ([5]; Sample Concentration 0.02%): Growth
- Growth/no growth ([5]; Sample Concentration 0.04%): Growth
- Growth/no growth ([5]; Sample Concentration 0.08%): Growth
- Growth/no growth ([5]; Sample Concentration 0.16%): Growth
- Growth/no growth ([5]; Sample Concentration 0.32%): Growth
- Growth/no growth ([5]; Sample Concentration 0.63%): No
- Growth/no growth ([5]; Sample Concentration 1.25%): No
- Growth/no growth ([5]; Sample Concentration 2.5%): No
